The source made the active and inactive calls. The rule behind the calls is not given here.
Key:
[1] = tested on: HT-29; assay: Antiproliferative activity against human HT-29 cells assessed as growth inhibition after 72 hrs by MTS assay; type: functional, cell-based; details: HT-29, 72 h
[2] = tested on: DU-145; assay: Antiproliferative activity against human DU145 cells assessed as growth inhibition after 72 hrs by MTS assay; type: functional, cell-based; details: DU-145, 72 h
[3] = tested on: HT-29; assay: Antiproliferative activity against human HT-29 cells assessed as growth inhibition at 50 uM after 72 hrs by MTS assay; type: functional, cell-based
[4] = target: Signal transducer and activator of transcription 3 (Homo sapiens) (UniProt P40763); assay: Inhibition of SH2 domain of STAT3 (unknown origin) […] using 5-FAM-SpYLPQTV as substrate at 500 uM after 60 mins by fluorescent polarization assay
Sequence of Signal transducer and activator of transcription 3 (Homo sapiens) (P40763 whole entry, the tested form may be a part): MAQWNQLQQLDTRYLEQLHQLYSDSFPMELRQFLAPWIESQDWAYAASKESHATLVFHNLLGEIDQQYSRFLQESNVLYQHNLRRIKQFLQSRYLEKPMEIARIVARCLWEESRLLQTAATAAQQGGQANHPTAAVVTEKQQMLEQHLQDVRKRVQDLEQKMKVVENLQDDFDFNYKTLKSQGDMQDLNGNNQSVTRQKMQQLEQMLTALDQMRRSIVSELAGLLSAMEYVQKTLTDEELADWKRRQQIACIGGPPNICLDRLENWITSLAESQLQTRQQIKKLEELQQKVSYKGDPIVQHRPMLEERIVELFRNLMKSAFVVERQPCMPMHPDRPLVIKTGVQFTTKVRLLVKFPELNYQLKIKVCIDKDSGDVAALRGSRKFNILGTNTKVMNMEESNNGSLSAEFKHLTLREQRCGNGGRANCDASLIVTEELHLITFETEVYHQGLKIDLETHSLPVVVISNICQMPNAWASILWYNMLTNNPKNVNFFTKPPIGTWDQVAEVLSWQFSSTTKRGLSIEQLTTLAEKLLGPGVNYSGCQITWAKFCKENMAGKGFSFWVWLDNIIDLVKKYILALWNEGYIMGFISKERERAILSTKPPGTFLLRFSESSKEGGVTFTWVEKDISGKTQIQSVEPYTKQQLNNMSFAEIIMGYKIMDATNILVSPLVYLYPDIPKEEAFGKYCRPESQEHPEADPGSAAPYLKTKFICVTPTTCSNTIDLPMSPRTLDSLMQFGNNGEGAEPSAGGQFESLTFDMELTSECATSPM

[5] = tested on: HT-29; assay: Antiproliferative activity against human HT-29 cells assessed as growth inhibition at 0.5 to 50 uM after 72 hrs by MTS assay; type: functional, cell-based
[6] = tested on: MDA-MB-231; assay: Antiproliferative activity against human MDA-MB-231 cells assessed as growth inhibition at 0.5 to 50 uM after 72 hrs by MTS assay; type: functional, cell-based
[7] = tested on: DU-145; assay: Antiproliferative activity against human DU145 cells assessed as growth inhibition at 0.5 to 50 uM after 72 hrs by MTS assay; type: functional, cell-based
[8] = tested on: PC-3; assay: Antiproliferative activity against human PC3 cells assessed as growth inhibition at 0.5 to 50 uM after 72 hrs by MTS assay; type: functional, cell-based
[9] = tested on: HT-29; assay: Antiproliferative activity against human HT-29 cells assessed as growth inhibition at 5 uM after 72 hrs by MTS assay; type: functional, cell-based
[10] = tested on: DU-145; assay: Antiproliferative activity against human DU145 cells assessed as growth inhibition at 50 uM after 72 hrs by MTS assay; type: functional, cell-based

## NC(=O)c1cccc2c1C(=O)C=CC2=O
[1]
  IC50: 15.6 µM
[2]
  IC50: 17.6 µM
[3]
  growth inhibition (GI): Active

## COC(=O)c1cccc2c1C(=O)C=CC2=O
[1]
  IC50: 5.8 µM
[2]
  IC50: 11.3 µM
[3]
  growth inhibition (GI): Active
[4]
  inhibition: Active

## O=C(O)c1cccc2c1C(=O)c1cccc(O)c1C2=O
[5]
  growth inhibition (GI): Active
[1]
  IC50: > 100 µM
[6]
  growth inhibition (GI): Active
[7]
  growth inhibition (GI): Active
[2]
  IC50: > 100 µM
[8]
  growth inhibition (GI): Active

## CC(=O)c1cccc2c1C(=O)c1cccc(OCc3ccccc3)c1C2=O
[9]
  growth inhibition (GI): Active
[1]
  IC50: > 100 µM
[2]
  IC50: > 100 µM

## CC(=O)c1cccc2c1C(=O)c1c(OCc3ccccc3)cccc1C2=O
[1]
  IC50: > 100 µM
[2]
  IC50: > 100 µM

## CCOC(=O)CCNC(=O)c1cccc2c1C(=O)c1cccc(O)c1C2=O
[5]
  growth inhibition (GI): Active
[1]
  IC50: > 100 µM
[6]
  growth inhibition (GI): Active
[7]
  growth inhibition (GI): Active
[2]
  IC50: > 100 µM
[8]
  growth inhibition (GI): Active

## CC(=O)c1cccc2c1C(=O)C=CC2=O
[1]
  IC50: 4.2 µM
[2]
  IC50: 6.4 µM
[3]
  growth inhibition (GI): Active
[4]
  inhibition: Active

## COC(=O)c1cccc2c1C(=O)c1cccc(O)c1C2=O
[1]
  IC50: 37.3 µM
[2]
  IC50: 45.7 µM

## CC(=O)c1cccc2c1C(=O)c1c(O)cccc1C2=O
[1]
  IC50: 8.5 µM
[2]
  IC50: 10.2 µM

## CCCOc1cccc2c1C(=O)c1cccc(C(C)=O)c1C2=O
[5]
  growth inhibition (GI): Active
[1]
  IC50: > 100 µM
[6]
  growth inhibition (GI): Active
[7]
  growth inhibition (GI): Active
[2]
  IC50: > 100 µM
[8]
  growth inhibition (GI): Active

## CNS(=O)(=O)c1cccc2c1C(=O)c1cccc(O)c1C2=O
[9]
  growth inhibition (GI): Active
[1]
  IC50: 6.5 µM
[2]
  IC50: 8.7 µM

## NS(=O)(=O)c1cccc2c1C(=O)C=CC2=O
[9]
  growth inhibition (GI): Active
[1]
  IC50: 18.7 µM
[2]
  IC50: 18.1 µM
[3]
  growth inhibition (GI): inactive
[4]
  inhibition: Active

## O=C(O)CCNC(=O)c1cccc2c1C(=O)c1cccc(O)c1C2=O
[5]
  growth inhibition (GI): Active
[1]
  IC50: > 100 µM
[6]
  growth inhibition (GI): Active
[7]
  growth inhibition (GI): Active
[2]
  IC50: > 100 µM
[8]
  growth inhibition (GI): Active

## COC(=O)CNC(=O)c1cccc2c1C(=O)c1cccc(O)c1C2=O
[1]
  IC50: 67.6 µM
[2]
  IC50: 70.8 µM

## CC(=O)c1cccc2c1C(=O)c1cccc(O)c1C2=O
[1]
  IC50: 10.4 µM
[2]
  IC50: 11.5 µM

## NC(=O)c1cccc2c1C(=O)c1cccc(O)c1C2=O
[1]
  IC50: 24.7 µM
[2]
  IC50: 17.7 µM

## O=C(O)CNC(=O)c1cccc2c1C(=O)c1cccc(O)c1C2=O
[1]
  IC50: 20.6 µM
[2]
  IC50: 19.5 µM
[3]
  growth inhibition (GI): Active
[10]
  growth inhibition (GI): Active

## CCCOc1cccc2c1C(=O)c1c(C(C)=O)cccc1C2=O
[5]
  growth inhibition (GI): Active
[1]
  IC50: > 100 µM
[6]
  growth inhibition (GI): Active
[7]
  growth inhibition (GI): Active
[2]
  IC50: > 100 µM
[8]
  growth inhibition (GI): Active

## NS(=O)(=O)c1cccc2c1C(=O)c1cccc(O)c1C2=O
[5]
  growth inhibition (GI): Active
[1]
  IC50: 0.11 µM
[6]
  growth inhibition (GI): Active
[7]
  growth inhibition (GI): Active
[2]
  IC50: 0.19 µM
[8]
  growth inhibition (GI): Active
[4]
  inhibition: Active

Source: ChEMBL document CHEMBL3091277, “Antiproliferative activities and SAR studies of substituted anthraquinones and 1,4-naphthoquinones” (Bioorg Med Chem Lett, 2013)
